Laboratory results taken from PMC8329922, “Credentialing and Pharmacologically Targeting PTP4A3 Phosphatase as a Molecular Target for Ovarian Cancer” (Biomolecules, 2021).

Columns and labels:
OVCAR4 = assay: Cytotoxicity, 3D spheroids, CellTiter Glo 3D; format: cell-based; conditions: Homo sapiens, OVCAR-4, 48 h exposure, read-out: EC50 (μM ± SEM) OVCAR4
V581 = assay: Cytotoxicity, 3D spheroids, CellTiter Glo 3D; format: cell-based; conditions: Homo sapiens, 48 h exposure, patient-derived cell line, read-out: EC50 (μM ± SEM) V581
COV362 = assay: Cytotoxicity, 3D spheroids, CellTiter Glo 3D; format: cell-based; conditions: Homo sapiens, 48 h exposure, read-out: EC50 (μM ± SEM) COV362
COV362-47R = assay: Cytotoxicity, 3D spheroids, CellTiter Glo 3D; format: cell-based; conditions: Homo sapiens, 48 h exposure, carboplatin resistant line, read-out: EC50 (μM ± SEM) COV362-47R
OVSAHO = assay: Cytotoxicity, 3D spheroids, CellTiter Glo 3D; format: cell-based; conditions: Homo sapiens, 48 h exposure, read-out: EC50 (μM ± SEM) OVSAHO
Kuramochi = assay: Cytotoxicity, 3D spheroids, CellTiter Glo 3D; format: cell-based; conditions: Homo sapiens, 48 h exposure, read-out: EC50 (μM ± SEM) Kuramochi
COV362 parent line = assay: Viability assay with 3-(4,5-dimethylthiazol-2-yl)-2,5-diphenyltetrazolium bromide; format: cell-based, human; conditions: MTT viability assay, read-out: EC50 (concentration that caused a 50% cytotoxicity)
COV362-47R cells = assay: as above; format: cell-based, human; conditions: MTT viability assay, read-out: EC50 (concentration that caused a 50% cytotoxicity)
recombinant human PTP4A3 = target: T1, recombinant human PTP4A3 (Homo sapiens, UniProt O75365); assay: In vitro phosphatase inhibition (DiFMUP substrate); format: biochemical; conditions: Mean ± SEM, N = 3, * N = 6, ** N = 8; DiFMUP 12 μM, 25 °C, 30 min; read-out: in vitro IC50 against recombinant human PTP4A3
T1 construct: The cDNA for the full-length ptp4a3 was obtained from OriGene (SC308739); His6 (N); host or cells: E. coli BL21 (DE3)
T1 sequence (O75365 whole entry): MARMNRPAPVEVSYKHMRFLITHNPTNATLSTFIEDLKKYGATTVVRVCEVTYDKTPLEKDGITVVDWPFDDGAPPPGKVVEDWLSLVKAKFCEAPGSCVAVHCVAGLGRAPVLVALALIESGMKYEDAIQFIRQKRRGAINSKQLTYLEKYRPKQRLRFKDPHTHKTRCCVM

Row | Structure (SMILES) | EC50 (OVCAR4) | EC50 (V581) | EC50 (COV362) | EC50 (COV362-47R) | EC50 (OVSAHO) | EC50 (Kuramochi) | EC50 (COV362 parent line) | EC50 (COV362-47R cells) | IC50 (recombinant human PTP4A3)
1 | O=C(c1cc(Cc2n[nH]c(=O)c3ccccc23)ccc1F)N1CCN(C(=O)C2CC2)CC1 [Olaparib] | > 50 µM | > 50 µM | > 50 µM | > 50 µM | > 50 µM | > 50 µM |  |  | 
2 | N.N.O=C([O-])C1(C(=O)[O-])CCC1.[Pt+2] [carboplatin] |  |  |  |  |  |  | ~20 µM | ~200 µM | 
3 | C[C@]1(c2nc3c(C(N)=O)cccc3[nH]2)CCCN1 [Veliparib, reference compound] | > 50 µM | > 50 µM | > 50 µM | > 50 µM | > 50 µM | > 50 µM |  |  | 
4 | CC(=O)O[C@H]1C(=O)[C@@]2(C)[C@H]([C@H](OC(=O)c3ccccc3)[C@]3(O)C[C@H](OC(=O)[C@H](O)[C@@H](NC(=O)c4ccccc4)c4ccccc4)C(C)=C1C3(C)C)[C@]1(OC(C)=O)CO[C@@H]1C[C@@H]2O [Paclitaxel, reference compound] | > 5 µM | > 5 µM | > 5 µM | > 5 µM | > 5 µM | > 5 µM |  |  | 
5 | Cc1cc2c(s1)C(=O)C(=O)NC2=O [EJR-912-50] | > 50 µM | > 50 µM | > 50 µM | > 50 µM | > 50 µM | > 50 µM |  |  | 0.0606 ± 0.006 µM
6 | O=C1NC(=O)c2c(-c3ccccc3)csc2C1=O [EJR-912-43] | > 50 µM | > 50 µM | > 50 µM | > 50 µM | > 50 µM | > 50 µM |  |  | 0.0537 ± 0.0124 µM
7 | CN1C(=O)C(=N)c2sc(-c3ccccc3)cc2C1=O [NRT-870-59] | > 50 µM | > 50 µM | > 50 µM | > 50 µM | > 50 µM | 30.6 µM |  |  | 
8 | N=C1C(=O)NC(=O)c2c(-c3ccccc3)csc21 [EJR-912-41] | 26.9 ± 3.9 µM | > 50 µM | 31.6 ± 6.8 µM | > 50 µM | 38.7 ± 1.7 µM | 7 µM |  |  | 0.0637 ± 0.0073 µM
9 | Cc1cc2c(s1)C(=N)C(=O)NC2=O [EJR-912-57] | > 25 µM | > 50 µM | 28.3 ± 3.1 µM | > 50 µM | > 50 µM | > 50 µM |  |  | 0.0897 ± 0.014 µM
10 | CC[C@@]1(O)C(=O)OCc2c1cc1n(c2=O)Cc2cc3c(CN(C)C)c(O)ccc3nc2-1 [Topotecan, reference compound] | 2.5 ± 0.8 µM |  | 2.5 ± 0.7 µM | 25.3 ± 9.8 µM | 2.5 ± 1.1 µM |  |  |  | 
